Assay results from US9505781B2, “Compositions comprising thienopyrimidine and thienopyridine compounds and methods of use thereof” (The Regents of the University of Michigan, priority 2013, dated 2016).

biological target: T1, menin-MLL interaction (Homo sapiens, UniProt O00255); assay: biochemical
T1 sequence (O00255 1-610): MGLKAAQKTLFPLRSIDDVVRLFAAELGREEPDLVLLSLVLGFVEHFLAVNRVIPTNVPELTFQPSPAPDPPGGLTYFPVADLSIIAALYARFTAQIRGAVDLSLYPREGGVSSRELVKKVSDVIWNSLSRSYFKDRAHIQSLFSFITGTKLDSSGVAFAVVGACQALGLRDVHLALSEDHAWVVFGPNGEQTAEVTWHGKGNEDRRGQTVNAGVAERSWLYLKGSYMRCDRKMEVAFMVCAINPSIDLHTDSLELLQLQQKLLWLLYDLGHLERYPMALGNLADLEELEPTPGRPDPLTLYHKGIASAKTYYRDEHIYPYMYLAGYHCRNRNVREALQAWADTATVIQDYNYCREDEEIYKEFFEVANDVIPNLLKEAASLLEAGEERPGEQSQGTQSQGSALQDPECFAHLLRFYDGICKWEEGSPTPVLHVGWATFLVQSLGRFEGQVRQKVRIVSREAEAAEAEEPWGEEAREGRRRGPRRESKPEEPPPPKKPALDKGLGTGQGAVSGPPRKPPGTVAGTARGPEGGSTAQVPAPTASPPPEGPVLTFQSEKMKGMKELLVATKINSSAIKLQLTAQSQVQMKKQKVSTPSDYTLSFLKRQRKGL
Source text: Compounds that inhibit the interaction decrease the fluorescence anisotropy which is being used as a read-out for compound screening and for IC50 determination.

Row | IC50 [nM] | Structure (SMILES)
1 | 100 to 500 | N#Cc1cc2cc(CN3CCC(Nc4ncnc5sc(CC(F)(F)F)cc45)CC3)ccc2n1N [Compound 230]
2 | 100 to 500 | CNn1c(C#N)cc2cc(CN3CCC(Nc4ncnc5sc(CC(F)(F)F)cc45)CC3)ccc21 [Compound 231]
3 | 100 to 500 | NC(=O)c1cc2cc(CN3CCC(Nc4ncnc5sc(CC(F)(F)F)cc45)CC3)ccc2[nH]1 [Compound 232]
4 | 100 to 500 | N#Cc1[nH]c2ccc(CN3CCC(Nc4ncnc5sc(CC(F)(F)F)cc45)CC3)cc2c1N [Compound 233]
5 | 100 to 500 | N#Cc1cc2cc(CN3CCC(Nc4ncnc5sc(CC(F)(F)F)cc45)CC3)c(F)cc2[nH]1 [Compound 234]
6 | 100 to 500 | N#Cc1cc2c(O)c(CN3CCC(Nc4ncnc5sc(CC(F)(F)F)cc45)CC3)ccc2[nH]1 [Compound 235]
7 | 100 to 500 | CS(=O)(=O)c1cc2cc(CN3CCC(Nc4ncnc5sc(CC(F)(F)F)cc45)CC3)ccc2[nH]1 [Compound 236]
8 | 100 to 500 | COCC(O)Cn1c(C#N)cc2cc(CN3CCC(Nc4ncnc5sc(CC(F)(F)F)cc45)CC3)ccc21 (centres unmarked) [Compound 237]
9 | 100 to 500 | N#Cc1cc2cc(CN3CCC(N(CCN4CCOCC4)c4ncnc5sc(CC(F)(F)F)cc45)CC3)ccc2[nH]1 [Compound 238]
10 | 100 to 500 | CNC(=O)CCn1c(C#N)cc2cc(CN3CCC(Nc4ncnc5sc(CC(F)(F)F)cc45)CC3)ccc21 [Compound 239]
11 | 100 to 500 | N#Cc1cc2cc(CN3CCC(Nc4ncnc5sc(CC(F)(F)F)cc45)CC3)ccc2n1Cc1nn[nH]n1 [Compound 240]
12 | 100 to 500 | Cc1noc(C)c1Cn1c(C#N)cc2cc(CN3CCC(Nc4ncnc5sc(CC(F)(F)F)cc45)CC3)ccc21 [Compound 241]
13 | 100 to 500 | OCc1cccc2c(CN3CCC(Nc4ncnc5sc(CC(F)(F)F)cc45)CC3)c[nH]c12 [Compound 242]
14 | 100 to 500 | FC(F)(F)Cc1cc2c(NC3CCN(Cc4c[nH]c5ccccc45)CC3)ncnc2s1 [Compound 243]
15 | 100 to 500 | CCOc1c(CN2CCC(Nc3ncnc4sc(CC(F)(F)F)cc34)CC2)ccc2[nH]c(C#N)cc12 [Compound 244]
16 | 100 to 500 | N#Cc1cc2cc(CN3CCC(Nc4ncnc5sc(CC(F)(F)F)cc45)CC3)cc(F)c2[nH]1 [Compound 245]
17 | 100 to 500 | N#Cc1cc2cc(CN3CCC(Nc4ncnc5sc(CC(F)(F)F)cc45)CC3)cc(F)c2n1CC(N)=O [Compound 246]
18 | 100 to 500 | CC(C(N)=O)n1c(C#N)cc2cc(CN3CCC(Nc4ncnc5sc(CC(F)(F)F)cc45)CC3)ccc21 (centres unmarked) [Compound 247]
19 | 500 to 2000 | N#Cc1nc2ccc(CN3CCC(Nc4ncnc5sc(CC(F)(F)F)cc45)CC3)cc2o1 [Compound 248]
20 | 500 to 2000 | N#Cc1nc2cc(CN3CCC(Nc4ncnc5sc(CC(F)(F)F)cc45)CC3)ccc2[nH]1 [Compound 249]
21 | 500 to 2000 | O=c1[nH]c2ccc(CN3CCC(Nc4ncnc5sc(CC(F)(F)F)cc45)CC3)cc2[nH]1 [Compound 250]

Row | IC50 [nM] | Structure (SMILES)
22 | 500 to 2000 | CC(C)NCC(O)Cn1c(C#N)cc2cc(CN3CCC(Nc4ncnc5sc(CC(F)(F)F)cc45)CC3)ccc21 (centres unmarked) [Compound 251]
23 | 500 to 2000 | N#CCc1ccc2[nH]cc(CN3CCC(Nc4ncnc5sc(CC(F)(F)F)cc45)CC3)c2c1 [Compound 252]
24 | 100 to 500 | NS(=O)(=O)c1ccc(CN2CCC(CNc3ncnc4sc(CC(F)(F)F)cc34)CC2)c(Cl)c1 [Compound 253]
25 | 100 to 500 | FC(F)(F)Cc1cc2c(NCC3CCN(Cc4ccc(Cl)cc4Cl)CC3)ncnc2s1 [Compound 254]
26 | 100 to 500 | FC(F)(F)Cc1cc2c(NCC3CCN(Cc4ccc(N5CCCCC5)cc4)CC3)ncnc2s1 [Compound 255]
27 | 100 to 500 | N#Cc1ccc(CN2CCC(CNc3ncnc4sc(CC(F)(F)F)cc34)CC2)c(Cl)c1 [Compound 256]
28 | 100 to 500 | COc1ccc(CN2CCC(CNc3ncnc4sc(CC(F)(F)F)cc34)CC2)c(Cl)c1 [Compound 257]
29 | 100 to 500 | Cc1ccccc1CN1CCC(CNc2ncnc3sc(CC(F)(F)F)cc23)CC1 [Compound 258]
30 | 100 to 500 | FC(F)(F)Cc1cc2c(NCC3CCN(Cc4ccc(N5CCOCC5)cc4Cl)CC3)ncnc2s1 [Compound 259]
31 | 100 to 500 | FC(F)(F)Cc1cc2c(NCC3CCN(Cc4ccccc4Cl)CC3)ncnc2s1 [Compound 260]
32 | 100 to 500 | FC(F)(F)Cc1cc2c(NCC3CCN(Cc4ccc(Cl)cc4)CC3)ncnc2s1 [Compound 261]
33 | 100 to 500 | NS(=O)(=O)c1ccc(CN2CCC(CNc3ncnc4sc(CC(F)(F)F)cc34)CC2)cc1 [Compound 262]
34 | 100 to 500 | N#Cc1ccc(CN2CCC(CNc3ncnc4sc(CC(F)(F)F)cc34)CC2)cc1 [Compound 263]
35 | 500 to 2000 | CCCCN(CC1CCN(Cc2ccc(C#N)cc2)CC1)c1ncnc2sc(CC(F)(F)F)cc12 [Compound 264]
36 | 500 to 2000 | NCc1ccc(CN2CCC(CNc3ncnc4sc(CC(F)(F)F)cc34)CC2)cc1 [Compound 265]
37 | 500 to 2000 | OCc1ccc(CN2CCC(CNc3ncnc4sc(CC(F)(F)F)cc34)CC2)cc1 [Compound 266]
38 | 500 to 2000 | CN1CCN(Cc2ccc(CN3CCC(CNc4ncnc5sc(CC(F)(F)F)cc45)CC3)cc2)CC1 [Compound 267]
39 | 500 to 2000 | FC(F)(F)Cc1cc2c(NCC3CCN(Cc4ccc(C(F)(F)F)cc4Cl)CC3)ncnc2s1 [Compound 268]
40 | 500 to 2000 | FC(F)(F)Cc1cc2c(NCC3CCN(Cc4ccc(Cl)cc4C(F)(F)F)CC3)ncnc2s1 [Compound 269]
41 | 500 to 2000 | CC(=O)c1ccc(CN2CCC(CNc3ncnc4sc(CC(F)(F)F)cc34)CC2)cc1 [Compound 270]

The remaining lines, values behind:

Row | Structure (SMILES) | IC50 [nM]
42 | N#Cc1cc2cc(CN3CCC(Nc4ncnc5sc(CC(F)(F)F)cc45)CC3)ccc2n1Cc1cn[nH]c1 [Compound 202] | < 100
43 | Cn1ccnc1Cn1c(C#N)cc2cc(CN3CCC(Nc4ncnc5sc(CC(F)(F)F)cc45)CC3)ccc21 [Compound 203] | < 100
44 | N#Cc1cc2cc(CN3CCC(Nc4ncnc5sc(CC(F)(F)F)cc45)CC3)ccc2n1Cc1nc[nH]n1 [Compound 204] | < 100
45 | N#Cc1cc2c(F)c(CN3CCC(Nc4ncnc5sc(CC(F)(F)F)cc45)CC3)ccc2n1CC(N)=O [Compound 205] | < 100
46 | N#Cc1ccc2c(CN3CCC(Nc4ncnc5sc(CC(F)(F)F)cc45)CC3)c[nH]c2c1 [Compound 206] | < 100
47 | N#Cc1cc2cc(CN3CCC(Nc4ncnc5sc(CC(F)(F)F)cc45)CC3)ccc2n1CCn1ccnn1 [Compound 207] | < 100
48 | CC(=O)NCCn1c(C#N)cc2cc(CN3CCC(Nc4ncnc5sc(CC(F)(F)F)cc45)CC3)ccc21 [Compound 208] | < 100
49 | N#Cc1cc2cc(CN3CCC(Nc4ncnc5sc(CC(F)(F)F)cc45)CC3)ccc2n1CCn1cncn1 [Compound 209] | < 100
50 | N#Cc1cc2cc(CN3CCC(Nc4ncnc5sc(CC(F)(F)F)cc45)CC3)ccc2n1CS(N)(=O)=O [Compound 210] | < 100
51 | N#Cc1cc2cc(C(CO)N3CCC(Nc4ncnc5sc(CC(F)(F)F)cc45)CC3)ccc2[nH]1 (centres unmarked) [Compound 211] | < 100
52 | CNC(=O)Cn1c(C#N)cc2cc(CN3CCC(Nc4ncnc5sc(CC(F)(F)F)cc45)CC3)ccc21 [Compound 212] | < 100
53 | N#Cc1c(F)c2cc(CN3CCC(Nc4ncnc5sc(CC(F)(F)F)cc45)CC3)ccc2n1CC(N)=O [Compound 213] | < 100
54 | N#Cc1cc2cc(CN3CCC(Nc4ncnc5sc(CC(F)(F)F)cc45)CC3)c(F)cc2n1CC(N)=O [Compound 214] | < 100
55 | CCOc1cc2[nH]c(C#N)cc2cc1CN1CCC(Nc2ncnc3sc(CC(F)(F)F)cc23)CC1 [Compound 215] | < 100
56 | CCOc1cc2c(cc1CN1CCC(Nc3ncnc4sc(CC(F)(F)F)cc34)CC1)cc(C#N)n2CC(N)=O [Compound 216] | < 100
57 | CCOc1cc2c(cc1CN1CCC(Nc3ncnc4sc(CC(F)(F)F)cc34)CC1)cc(C#N)n2C[C@H](O)CO [Compound 217] | < 100
58 | Cc1ccc2[nH]c(C#N)cc2c1CN1CCC(Nc2ncnc3sc(CC(F)(F)F)cc23)CC1 [Compound 218] | < 100
59 | N#Cc1cc2cc(CN3CCC(Nc4ncnc5sc(CC(F)(F)F)cc45)CC3)ccc2n1C(F)C(N)=O (centres unmarked) [Compound 220] | < 100
60 | CC(O)(CO)Cn1c(C#N)cc2cc(CN3CCC(Nc4ncnc5sc(CC(F)(F)F)cc45)CC3)ccc21 (centres unmarked) [Compound 221] | < 100
61 | N#Cc1cc2cc(CN3CCC(Nc4ncnc5sc(CC(F)(F)F)cc45)CC3)ccc2n1CC(CO)OC1CC1 (centres unmarked) [Compound 222] | < 100
62 | N#Cc1cc2cc(CN3CCC(Nc4ncnc5sc(CC(F)(F)F)cc45)CC3)ccc2n1CCCC(F)(F)F [Compound 223] | < 100
63 | N#Cc1cc2c(Cl)c(CN3CCC(Nc4ncnc5sc(CC(F)(F)F)cc45)CC3)ccc2[nH]1 [Compound 224] | < 100
64 | N#Cc1cc2c(Cl)c(CN3CCC(Nc4ncnc5sc(CC(F)(F)F)cc45)CC3)ccc2n1CC(N)=O [Compound 225] | < 100
65 | N#Cc1cc2c(Cl)c(CN3CCC(Nc4ncnc5sc(CC(F)(F)F)cc45)CC3)ccc2n1C[C@H](O)CO [Compound 226] | < 100
66 | FC(F)(F)Cc1cc2c(NC3CCN(Cc4ccc5cc[nH]c5c4)CC3)ncnc2s1 [Compound 227] | 100 to 500
67 | N#Cc1c[nH]c2cc(CN3CCC(Nc4ncnc5sc(CC(F)(F)F)cc45)CC3)ccc12 [Compound 228] | 100 to 500
68 | N#Cc1cc2ccc(CN3CCC(Nc4ncnc5sc(CC(F)(F)F)cc45)CC3)cc2[nH]1 [Compound 229] | 100 to 500
